This note sets out measurements from patent US20080311076A1, “Morpholinylanilinoquinazoline Derivatives For Use As Antiviral Agents” (ARROW THERAPEUTICS LIMITED, priority 2004, published 2008).

SMILES strings stand for the structures. Bounds are passed on as bounds.

For the assay, the system named is HCV replicon cells Huh 9B. As to the kind of experiment: HCV replicon assay (luciferase) in Huh 9B replicon cells. It counts as cell-based. The conditions noted are these: Hepatitis C virus; concentration reducing replicon level (luciferase activity) by 50% vs untreated cell control; 72 h incubation. The procedure: HCV replicon cells Huh 9B (ReBlikon), containing the firefly luciferase—ubiquitin—neomycin phosphotransferase fusion protein and EMCV-IRES driven HCV polyprotein with cell culture adaptive mutations.
Cells were cultured at 37° C. in a 5% CO2 environment and split twice a week on seeding at 2×10E6 cells/flask on day 1 and 1×10E6 3 days later. Some 0.25 mg/ml G418 was added to the culture medium (125 ul per 25 ml) but not the assay medium.
The culture medium consisted of DMEM with […] glucose and glutamax (Gibco 61965-026) supplemented with 1× non-essential amino acids, penicillin (100 IU/ml)/streptomycin (100 μg/ml), FCS (10%, 50 ml) and 1 mg/ml G418 (Invitrogen cat no 10131-027) & 10% foetal calf serum.
A flask of cells was trypsinised and a cell count carried out. Cells were diluted to 100,000 cells/ml and 100 μl of this used to seed one opaque white 96-well plate (for the replicon assay) and one flat-bottomed clear plate (for the tox assay) for every seven compounds to be tested for IC50. Wells G12 and H12 were left empty in the clear plate as the blank. Plates were then incubated at 37° C. in a 5% CO2 environment for 24 h.
On the following day compound dilutions are made up in medium at twice their desired final concentration in a clear round bottomed plate. All dilutions have a final DMSO concentration of 1%.
Once the dilution plate had been made up, controls and compounds were transferred to the assay plate (containing the cells) at 100 μl/well in duplicate plates.
Exception: in the white (replicon) plate, no compound was added to wells A1 and A2 and 100 μl of 1% DMSO was added to these instead. In the clear (Tox) plate, wells E12 & F12 only contained the DMSO control. Plates were then incubated at 37° C. with 5% CO2 for 72 h.
At the end of the incubation time, the cells in the white plate were harvested by washing with 200 μl/well of warm (37° C.) PBS and lysed with 20 μl cell culture lysis buffer (Promega). After 5 min incubation @ RT, luciferin solution was added to the luciferase assay buffer (LARB at 200 μl per 10 ml LARB. The M injector of the microplate luminometer (Lmax, Molecular Devices) was primed with […] injections. Plate were inserted into the luminometer and 100 μl luciferase assay reagent was added by the injector on the luminometer. The signal was measured using a 1 second delay followed by a 4 second measurement programme. The IC50, the concentration of the drug required for reducing the replicon level by 50% in relation to the untreated cell control value, can be calculated from the plot of the percentage reduction of the luciferase activity vs. drug concentration.
(In general: Replicon systems follow genome replication, usually without infectious particles.)
As to `Brc1ccc2ncnc(Nc3ccc(N4CCOCC4)cc3)c2c1` [Example 1, (6-Bromo-quinazolin-4-yl)-(4-morpholin-4-yl-phenyl)-amine], the IC50 (commonly the concentration at which inhibition is half-maximal) is below 5 µM.

Take `Ic1ccc2ncnc(Nc3ccc(N4CCOCC4)cc3)c2c1` [Example 2, (6-Iodo-quinazolin-4-yl)-(4-morpholin-4-yl-phenyl)-amine]: the IC50 is below 1 µM.

Turning to `c1coc(-c2ccc3ncnc(Nc4ccc(N5CCOCC5)cc4)c3c2)c1` [Example 5, (6-Furan-2-yl-quinazolin-4-yl)-(4-morpholin-4-yl-phenyl)-amine], the IC50 was below 1 µM.

On to `c1nc(Nc2ccc(N3CCOCC3)cc2)c2cc(-c3ccc(C4OCCO4)o3)ccc2n1` [Example 6, [6-(5-[1,3]Dioxolan-2-yl-furan-2-yl)quinazolin-4-yl]-(4-morpholin-4-yl-phenyl)-amine], for which the half-inhibitory concentration (IC50) is below 5 µM.

With `O=Cc1ccc(-c2ccc3ncnc(Nc4ccc(N5CCOCC5)cc4)c3c2)o1` [Example 7, 5-[4-(4-Morpholin 4-yl-phenylamino)-quinazolin-6-yl]-furan-2-carbaldehyde], the IC50 is below 1 µM.

For the molecule `OCc1ccc(-c2ccc3ncnc(Nc4ccc(N5CCOCC5)cc4)c3c2)o1` [Example 8, {5-[4-(4-morpholin-4-yl-phenylamino)-quinazolin-6-yl]-furan-2-yl}-methanol], the IC50 was below 1 µM.

With `CS(=O)(=O)CCNCc1ccc(-c2ccc3ncnc(Nc4ccc(N5CCOCC5)cc4)c3c2)o1` [Example 9, (6-{5-[(2-Methanesulfonyl-ethylamino)-methyl]-furan-2-yl}-quinazolin-4-yl)-(4-morpholin-4-yl-phenyl)-amine], the IC50 is below 1 µM.

Molecule `CN1CCN(Cc2ccc(-c3ccc4ncnc(Nc5ccc(N6CCOCC6)cc5)c4c3)o2)CC1` [Example 11, {6-[5-(4-Methyl-piperazin-1-ylmethyl)-furan-2-yl]-quinazolin-4-yl}-(4-morpholin-4-yl-phenyl)-amine] returned an IC50 below 5 µM.

Take `c1nc(Nc2ccc(N3CCOCC3)cc2)c2cc(-c3ccc(CN4CCOCC4)o3)ccc2n1` [Example 12, [6-(5-Morpholin-4-ylmethyl-furan-2-yl)-quinazolin-4-yl]-(4-morpholin-4-yl-phenyl)-amine]: the IC50 is below 1 µM.

`CN(C)Cc1ccc(-c2ccc3ncnc(Nc4ccc(N5CCOCC5)cc4)c3c2)o1` [Example 13, [6-(5-Dimethylaminomethyl-furan-2-yl)-quinazolin-4-yl]-(4-morpholin-4-yl-phenyl)-amine]: the IC50 is below 5 µM.

On to `CNCc1ccc(-c2ccc3ncnc(Nc4ccc(N5CCOCC5)cc4)c3c2)o1` [Example 14, [6-(5-Methylaminomethyl-furan-2-yl)-quinazolin-4-yl]-(4-morpholin4-yl-phenyl)-amine], for which the IC50 is below 25 µM.

`c1csc(-c2ccc3ncnc(Nc4ccc(N5CCOCC5)cc4)c3c2)c1` [Example 15, (4-Morpholin-4-yl-phenyl)-(6-thiophen-2-yl-quinazolin-4-yl)-amine] came in with an IC50 below 1 µM.

`Cc1ccccc1-c1ccc2ncnc(Nc3ccc(N4CCOCC4)cc3)c2c1` [Example 17, (4-Morpholin-4-yl-phenyl)-(6-o-tolyl-quinazolin-4-yl)-amine] gave an IC50 below 5 µM.

`c1csc(-c2ccc3ncnc(Nc4ccc(N5CCOCC5)cc4)c3c2)n1` [Example 18, (4-Morpholin-4-yl-phenyl)-(6-thiazol-2-yl-quinazolin-4-yl)-amine] yielded an IC50 below 1 µM.

For `COc1ncc(-c2ccc3ncnc(Nc4ccc(N5CCOCC5)cc4)c3c2)cn1` [Example 19, [6-(2-Methoxy-pyrimidin-5-yl)-quinazolin-4-yl]-(4-morpholin-4-yl-phenyl)-amine], the IC50 was below 1 µM.

On to `Cc1csc(-c2ccc3ncnc(Nc4ccc(N5CCOCC5)cc4)c3c2)c1` [Example 20, [6-(4-Methyl-thiophen-2-yl)-quinazolin-4-yl]-(4-morpholin-4-yl-phenyl)-amine], for which the IC50 is below 5 µM.

Molecule `O=C(O)c1ccc(-c2ccc3ncnc(Nc4ccc(N5CCOCC5)cc4)c3c2)s1` [Example 21, 5-[4-(4-Morpholin-4-yl-phenylamino)-quinazolin-6-yl]-thiophene-2-carboxylic acid] yielded an IC50 below 25 µM.

Regarding `CS(=O)(=O)c1ccc(-c2ccc3ncnc(Nc4ccc(N5CCOCC5)cc4)c3c2)cc1` [Example 22, [6-(4-Methanesulfonyl-phenyl)-quinazolin-4-yl]-(4-morpholin-4-yl-phenyl)-amine], the IC50 is below 1 µM.

As to `c1cc(-c2ccc3ncnc(Nc4ccc(N5CCOCC5)cc4)c3c2)cc(-n2cccn2)c1` [Example 23, (4-Morpholin-4-yl-phenyl)-[6-(3-pyrazol-1-yl-phenyl)-quinazolin-4-yl]-amine], the IC50 was below 1 µM.

For the molecule `N#Cc1ccc(-c2ccc3ncnc(Nc4ccc(N5CCOCC5)cc4)c3c2)cc1` [Example 24, 4-[4-(4-Morpholin-4-yl-phenylamino)-quinazolin-6-yl]-benzonitrile], the IC50 is below 5 µM.

Consider `O=C(Nc1ccc2ncnc(Nc3ccc(N4CCOCC4)cc3)c2c1)c1ccco1` [Example 25, Furan-2-carboxylic acid [4-(4-morpholin-4-yl-phenylamino)-quinazolin-6-yl]-amide], for which the IC50 is below 25 µM.

For `COc1ccc(CNC(=O)c2ccc3ncnc(Nc4ccc(N5CCOCC5)cc4)c3c2)cc1` [Example 26, 4-(4-Morpholin-4-yl-phenylamino)-quinazoline-6-carboxylic acid 4-methoxy-benzylamide], the IC50 was below 5 µM.

Take `CCOC(=O)c1cccc(NC(=O)c2ccc3ncnc(Nc4ccc(N5CCOCC5)cc4)c3c2)c1` [Example 27, 3-{[4-(4-Morpholin-4-yl-phenylamino)-quinazoline-6-carbonyl]-amino}-benzoic acid ethyl ester]: the half-maximal inhibitory concentration (IC50) is below 5 µM.

Molecule `COc1cccc(CNC(=O)c2ccc3ncnc(Nc4ccc(N5CCOCC5)cc4)c3c2)c1` [Example 28, 4-(4-Morpholin-4-yl-phenylamino)-quinazoline-6-carboxylic acid 3-methoxy-benzylamide] came in with an IC50 below 5 µM.

In turn, `Cc1ccc(CNC(=O)c2ccc3ncnc(Nc4ccc(N5CCOCC5)cc4)c3c2)cc1` [Example 29, 4-(4-Morpholin-4-yl-phenylamino)-quinazoline-6-carboxylic acid 4-methyl-benzylamide] yielded an IC50 below 5 µM.

In the case of `CNC(=O)c1ccc2ncnc(Nc3ccc(N4CCOCC4)cc3)c2c1` [Example 30, 4-(4-Morpholin-4-yl-phenylamino)-quinazoline-6-carboxylic acid methylamide], the IC50 was below 5 µM.

The molecule `CN(C)C(=O)c1ccc2ncnc(Nc3ccc(N4CCOCC4)cc3)c2c1` [Example 31, 4-(4-Morpholin-4-yl-phenylamino)-quinazoline-6-carboxylic acid dimethylamide] came in with an IC50 below 5 µM.

Consider `CCNC(=O)c1ccc2ncnc(Nc3ccc(N4CCOCC4)cc3)c2c1` [Example 32, 4-(4-Morpholin-4-yl-phenylamino)-quinazoline-6-carboxylic acid ethylamide], for which the half-inhibitory concentration (IC50) was below 5 µM.

Take `O=C(Nc1ccc(-c2ccc3ncnc(Nc4ccc(N5CCOCC5)cc4)c3c2)cc1)OCc1ccccc1` [Example 34, {4-[4-(4-Morpholin-4-yl-phenylamino)-quinazolin-6-yl]-phenyl}-carbamic acid benzyl ester]: the IC50 is below 1 µM.

The molecule `CC(=O)Nc1ccc(-c2ccc3ncnc(Nc4ccc(N5CCOCC5)cc4)c3c2)cc1` [Example 35, N-{4-[4-(4-Morpholin 4-yl-phenylamino)-quinazolin-6-yl]-phenyl}-acetamide] came in with an IC50 below 1 µM.

Molecule `CC(C)(C)OC(=O)Nc1ccc(-c2ccc3ncnc(Nc4ccc(N5CCOCC5)cc4)c3c2)cc1` [Example 36, {4-[4-(4-Morpholin-4-yl-phenylamino)-quinazolin-6-yl]-phenyl}-carbamic acid tert-butyl ester] yielded an IC50 below 1 µM.

In the case of `CS(=O)(=O)Nc1cccc(-c2ccc3ncnc(Nc4ccc(N5CCOCC5)cc4)c3c2)c1` [Example 38, N-{3-[4-(4-Morpholin-4-yl-phenylamino)-quinazolin-6-yl]-phenyl}-methanesulfonamide], the IC50 is below 5 µM.

For `FC(F)(F)c1cc(N2CCOCC2)ccc1Nc1ncnc2ccc(I)cc12` [Example 39, (6-Iodo-quinazolin-4-yl)-(4-morpholin-4-yl-2-trifluoromethyl-phenyl)-amine], the IC50 was below 1 µM.
